From patent publication US20260335453A1, “ISOINDOLINONE-GLUTARIMIDE ANTIBODY CONJUGATES, AND USES THEREOF” (FIREFLY BIO, INC., priority 2023, published 2026)

Assays:
CAL51 cells [1] = test: Degradation assay evaluated by immunofluorescence staining, CAL51; format: cell-based, human; details: for Dmax / DC50: Homo sapiens, CAL-51, CAL51, 6 h
Description: (§1) One day prior to treatment with compounds, black 96 well plates were coated with fibronectin (0.2 μg/ml in PBS) for 45 min at room temperature and subsequently washed with PBS. CAL-51 or SKBR3 cells were seeded at 30K cells/well (1001) and incubated overnight at 37° C. whereafter compounds were added reaching indicated concentrations. 6 h after treatment the medium was removed, cells were washed with PBS and fixed with 10% formalin for 20 mins at room temperature. Following two PBS washes (150 μl), cells were permeabilized in 0.1% Triton X-100 in PBS for 8 mins at room temperature and subsequently washed again twice with PBS. Cells were blocked thereafter with 1% BSA in PBS for 45 mins. Primary antibody was diluted in blocking buffer and incubated with the cells overnight at 4° C. After three washes with PBS, cells were incubated with secondary antibody for 1 h at RT, washed and subsequently images were taken on an Operetta High-Content Imager.
(§2) For the determination of the DC50, a custom algorithm implemented in the PerkinElmer image analysis software Harmony-Acapella® was used.

SKBR3 cells [2] = test: Cell proliferation (Cell Titer Glow), SKBR3; format: cell-based; details: Homo sapiens, SK-BR-3; IG compounds, cell killing, 72 h
Description: (§3) Exemplary isoindolinone-glutarimide (IG) compounds of Table 1a, 1b and 1c were prepared and characterized according to the Examples herein. Certain exemplary IG compounds of(Table 1a were tested for their effects in inhibiting cellular proliferation, including CAL1 WSU-DLCL2, NCI-N87 and SKBR3. CAL51 is a human breast adenocarcinoma cell line with triple-negative status for expression of estrogen, progesterone and HER2 receptors. WSU-DLCL2 is a human B-Cell non-Hodgkin lymphoma cell line that expresses high levels of CD22. NCI-N87 is a human epithelial cell line established from a gastric carcinoma; SKBR3 is a human epithelial cell line established from a breast adenocarcinoma; both NCI-N87 and SKBR3 cell lines express high levels of HER2 receptor. […]
(§4) One day prior to treatment with compounds or IGAC, cells were plated in white 96-well plates (SKBR: 3000 cells/well; CAL-51: 4000 cells/well). Compounds or ADCs were added in a serial-dilution manner reaching the indicated concentrations. Plates were incubated at 37 degrees for 96h (ADCs) or 72h (compounds) whereafter a 1:10 dilution of Cell Titer Glow was used to measure relative cell numbers after 10 min of incubation at room temperature.

CAL51 cells [3] = test: Cell proliferation (Cell Titer Glow), CAL51; format: cell-based; details: Homo sapiens, CAL-51; IG compounds, cell killing, 72 h
Description: as §3, §4

WSU-DLCL2 cells = test: Cell proliferation (Cell Titer Glow), WSU-DLCL2; format: cell-based; details: Homo sapiens, WSUDLCL2; IG compounds, cell killing, 72 h
Description: Exemplary isoindolinone-glutarimide (IG) compounds of Table 1a, 1b and 1c were prepared and characterized according to the Examples herein. Certain exemplary IG compounds of(Table 1a were tested for their effects in inhibiting cellular proliferation, including CAL1 WSU-DLCL2, NCI-N87 and SKBR3. CAL51 is a human breast adenocarcinoma cell line with triple-negative status for expression of estrogen, progesterone and HER2 receptors. WSU-DLCL2 is a human B-Cell non-Hodgkin lymphoma cell line that expresses high levels of CD22. NCI-N87 is a human epithelial cell line established from a gastric carcinoma; SKBR3 is a human epithelial cell line established from a breast adenocarcinoma; both NCI-N87 and SKBR3 cell lines express high levels of HER2 receptor.
Exemplary embodiments of the isoindolinone-glutarimide antibody conjugates (IGAC) of Formula I are compiled in Table 3. Assessment of IGAC biological activity and other properties may be conducted according to the methods of Example 102. In some instances, the Cell proliferation dose response IC50 value is an average of repetitive assays. Certain exemplary IGAC were tested for their effects in inhibiting cellular proliferation, including CAL51; WSU-DLCL2, NCI-N87 and SKBR3 cell lines. CAL51 is a human breast adenocarcinoma cell line with triple-negative status for expression of estrogen, progesterone and HER2 receptors. WSU-DLCL2 is a human B-Cell non-Hodgkin lymphoma cell line that expresses high levels of CD22. NCI-N87 is a human epithelial cell line established from a gastric carcinoma; SKBR3 is a human epithelial cell line established from a breast adenocarcinoma; both NCI-N87 and SKBR3 cell lines express high levels of HER2 receptor.
On the day of treatment, 10,000 suspension cells/well were plated in white 96-well plates. Compounds or ADCs were added in a serial-dilution manner reaching the indicated concentrations. Plates were incubated at 37 degrees for 72 h whereafter a 1:10 dilution of Cell Titer Glow was used to measure relative cell numbers after 10 min of incubation at room temperature.

SKBR3 cells [4] = test: Degradation assay evaluated by immunofluorescence staining, SKBR3; format: cell-based; details: Homo sapiens, SK-BR-3, SKBR3, 6 h
Description: as §1, §2

| Compound | Dmax (CAL51 cells [1]) [%] | IC50 (SKBR3 cells [2]) [nM] | IC50 (CAL51 cells [3]) [nM] | IC50 (WSU-DLCL2 cells) [nM] | DC50 (CAL51 cells [1]) [nM] | DC50 (SKBR3 cells [4]) [nM] | Dmax (SKBR3 cells [4]) [%] | Dmax (%) CAL51 (CAL51 cells [1]; CAL51, 6 h) |
| --- | --- | --- | --- | --- | --- | --- | --- | --- |
| CNCCOCCc1ccc(NC(=O)CCc2ccc3c(c2)CN(C2CCC(=O)NC2=O)C3=O)cc1Cl (centres unmarked) [IG-2, N-(3-chloro-4-(2-(2-(methylamino)ethoxy)ethyl)phenyl)-3-(2-(2,6-dioxopiperidin-3-yl)-1-oxoisoindolin-5-yl)propenamide] | < 5 | > 10000 | > 10000 | > 10000 |  |  |  |  |
| CNCCOCCc1ccc(NC(=O)NCc2ccc3c(c2)CN(C2CCC(=O)NC2=O)C3=O)cc1Cl (centres unmarked) [IG-3, 1-(3-chloro-4-(2-(2-(methylamino)ethoxy)ethyl)phenyl)-3-((2-(2,6-dioxopiperidin-3-yl)-1-oxoisoindolin-5-yl)methyl)urea] | 79.4 ± 3.63 | 77.5 | 3010 | 66.4 | 345 ± 135 | 185 | 78.2 |  |
| Cc1ccc(NC(=O)NCc2ccc3c(c2)CN(C2CCC(=O)NC2=O)C3=O)cc1O (centres unmarked) [IG-12, 1-((2-(2,6-dioxopiperidin-3-yl)-1-oxoisoindolin-5-yl)methyl)-3-(3-hydroxy-4-methylphenyl)urea] | 96.8 ± 4.12 |  | 1250 |  | 118 ± 35 | 52.2 | 98.3 |  |
| Cc1ccc(NC(=O)NCc2ccc3c(c2O)CN(C2CCC(=O)NC2=O)C3=O)cc1Cl (centres unmarked) [IG-15, 1-(3-chloro-4-methylphenyl)-3-((2-(2,6-dioxopiperidin-3-yl)-4-hydroxy-1-oxoisoindolin-5-yl)methyl)urea] | 79.2 ± 9.1 | 5.19 | 54.9 | 4.25 | 35.8 ± 20.4 | < 2.26 | 91.1 ± 3.35 |  |
| CNCCOCCc1ccc(NC(=O)NCc2ccc3c(c2)C(=O)N(C2CCC(=O)NC2=O)C3)cc1Cl (centres unmarked) [IG-20, 1-(3-chloro-4-(2-(2-(methylamino)ethoxy)ethyl)phenyl)-3-((2-(2,6-dioxopiperidin-3-yl)-3-oxoisoindolin-5-yl)methyl)urea] |  |  | > 10000 |  |  |  |  | Not active |
| CC(C)(C)c1cccc(NC(=O)NCc2ccc3c(c2O)CN(C2CCC(=O)NC2=O)C3=O)c1 (centres unmarked) [IG-25, 1-(3-(tert-butyl)phenyl)-3-((2-(2,6-dioxopiperidin-3-yl)-4-hydroxy-1-oxoisoindolin-5-y1)methyl)urea] | 89.6 |  | 43.2 |  | 28.9 |  |  |  |
| CC(C)(C)c1ccc(NC(=O)NCc2ccc3c(c2O)CN(C2CCC(=O)NC2=O)C3=O)cc1 (centres unmarked) [IG-26, 1-(4-(tert-butyl)phenyl)-3-((2-(2,6-dioxopiperidin-3-yl)-4-hydroxy-1-oxoisoindolin-5-y1)methyl)urea] | 22.1 |  | > 10000 |  |  |  |  |  |
| CC(C)(C)c1ccccc1NC(=O)NCc1ccc2c(c1O)CN(C1CCC(=O)NC1=O)C2=O (centres unmarked) [IG-28, 1-(2-(tert-butyl)phenyl)-3-((2-(2,6-dioxopiperidin-3-yl)-4-hydroxy-1-oxoisoindolin-5-yl)methyl)urea] | 94.2 |  | 22.5 |  | 46.9 | 5.2 | 90.2 |  |
| CNc1c(CNC(=O)Nc2ccc(C)c(Cl)c2)ccc2c1CN(C1CCC(=O)NC1=O)C2=O (centres unmarked) [IG-31, 1-(3-chloro-4-methylphenyl)-3-((2-(2,6-dioxopiperidin-3-yl)-4-(methylamino)-1-oxoisoindolin-5-yl)methyl)urea] | 18.6 |  | > 10000 |  |  |  |  |  |
| Cc1ccc(NC(=O)NCc2cc3c(cc2O)C(=O)N(C2CCC(=O)NC2=O)C3)cc1Cl (centres unmarked) [IG-36, 1-(3-chloro-4-methylphenyl)-3-((2-(2,6-dioxopiperidin-3-yl)-6-hydroxy-1-oxoisoindolin-5-yl)methyl)urea] | 78.5 ± 8.18 | 3.5 | 120 | 4.95 | 660 ± 997 | 4.62 | 91.8 |  |
| Cc1ccc(C(=O)C(=O)NCc2ccc3c(c2O)CN(C2CCC(=O)NC2=O)C3=O)cc1Cl (centres unmarked) [IG-37, 2-(3-chloro-4-methylphenyl)-N-((2-(2,6-dioxopiperidin-3-yl)-4-hydroxy-1-oxoisoindolin-5-y1)methyl)-2-oxoacetamide] | 70.9 | 4.2 | 72.5 | 9.6 | 139 | 7.88 | 95.2 |  |
| O=C1CCC(N2Cc3c(ccc(CNC(=O)Nc4cccc5ccccc45)c3O)C2=O)C(=O)N1 (centres unmarked) [IG-38, 1-((2-(2,6-dioxopiperidin-3-yl)-4-hydroxy-1-oxoisoindolin-5-yl)methyl)-3-(naphthalen-1-yl)urea] | 93.7 |  | 35.9 |  | 113 | 10.6 | 94.1 |  |
| O=C1CCC(N2Cc3c(ccc(CNC(=O)Nc4ccc5ccccc5c4)c3O)C2=O)C(=O)N1 (centres unmarked) [IG-39, 1-((2-(2,6-dioxopiperidin-3-yl)-4-hydroxy-1-oxoisoindolin-5-yl)methyl)-3-(naphthalen-2-yl)urea] | 69.4 | 14.1 |  |  | 81.4 | 42.7 | 77.4 |  |
| O=C1CCC(N2Cc3c(ccc(CNC(=O)Nc4ccc(Br)c(Cl)c4)c3O)C2=O)C(=O)N1 (centres unmarked) [IG-40, 1-(4-bromo-3-chlorophenyl)-3-((2-(2,6-dioxopiperidin-3-yl)-4-hydroxy-1-oxoisoindolin-5-yl)methyl)urea] |  | 21.3 |  |  |  |  |  |  |
| O=C1CCC(N2Cc3c(ccc(CNC(=O)Nc4ccc(I)c(Cl)c4)c3O)C2=O)C(=O)N1 (centres unmarked) [IG-41, 1-(3-chloro-4-iodophenyl)-3-((2-(2,6-dioxopiperidin-3-yl)-4-hydroxy-1-oxoisoindolin-5-yl)methyl)urea] |  | 17.1 | 25 |  |  |  |  |  |
| CC(C)(C)c1ccc(NC(=O)NCc2ccc3nnn(C4CCC(=O)NC4=O)c(=O)c3c2)c(O)c1 (centres unmarked) [IG-49, 1-(4-(tert-butyl)-2-hydroxyphenyl)-3-((3-(2,6-dioxopiperidin-3-yl)-4-oxo-3,4-dihydrobenzo[d][1,2,3]triazin-6-yl)methyl)urea] |  | 41.7 |  |  |  |  |  |  |
| CC(C)c1cc(NC(=O)NCc2ccc3c(c2O)CN(C2CCC(=O)NC2=O)C3=O)ccc1C(F)(F)F (centres unmarked) [IG-51, 1-((2-(2,6-dioxopiperidin-3-yl)-4-hydroxy-1-oxoisoindolin-5-yl)methyl)-3-(3-isopropyl-4-(trifluoromethyl)phenyl)urea] |  | 15.7 |  | 10.2 |  |  |  |  |
| O=C1CCC(N2Cc3c(ccc(CNC(=O)C(F)(F)c4ccc(Cl)cc4)c3O)C2=O)C(=O)N1 (centres unmarked) [IG-52, 2-(4-chlorophenyl)-N-((2-(2,6-dioxopiperidin-3-yl)-4-hydroxy-1-oxoisoindolin-5-yl)methyl)-2,2-difluoroacetamide] |  | 443 |  | > 2000 |  |  |  |  |
| Cc1c(Cl)cc(NC(=O)NCc2ccc3c(c2)CN(C2CCC(=O)NC2=O)C3=O)cc1N1CCOC1=O (centres unmarked) [IG-54, 1-(3-chloro-4-methyl-5-(2-oxooxazolidin-3-yl)phenyl)-3-((2-(2,6-dioxopiperidin-3-yl)-1-oxoisoindolin-5-yl)methyl)urea] |  | 14.5 |  | 6.9 |  |  |  |  |
